Measured values published in US9944666B2, “Compounds that are S1P modulating agents and/or ATX modulating agents” (BIOGEN MA INC., priority 2012, dated 2018).

molecular target: T1, human S1P4 (Homo sapiens, UniProt O95977); test: S1P receptor calcium mobilization assay, agonist format; assay type: cell-based; conditions: recombinant CHEM cells expressing human S1P4, calcium flux, FLIPR
T1 construct: host or cells: recombinant CHEM cells
T1 sequence (O95977 1-384): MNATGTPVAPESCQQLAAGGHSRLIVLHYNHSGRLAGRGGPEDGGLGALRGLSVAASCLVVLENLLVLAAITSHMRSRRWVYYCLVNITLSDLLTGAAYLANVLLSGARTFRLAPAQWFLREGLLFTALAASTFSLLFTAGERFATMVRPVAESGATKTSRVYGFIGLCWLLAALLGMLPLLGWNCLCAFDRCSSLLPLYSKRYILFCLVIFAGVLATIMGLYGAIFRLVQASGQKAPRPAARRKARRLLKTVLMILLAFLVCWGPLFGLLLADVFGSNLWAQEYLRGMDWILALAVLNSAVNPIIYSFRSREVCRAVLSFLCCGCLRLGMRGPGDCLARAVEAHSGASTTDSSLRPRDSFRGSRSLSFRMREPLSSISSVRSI
Method: (§1) Compounds that are not specific for a particular S1P receptor can cause undesirable side effects. Accordingly, compounds are tested to identify those that are specific. Accordingly, the test compounds are tested in a calcium mobilization assay/S1P receptor activity assay. The procedure is essentially as described in Davis et al. (2005) Journal of Biological Chemistry, vol. 280, pp. 9833-9841, which is incorporated by reference in its entirety with the following modifications. Calcium mobilization assays are performed in recombinant CHEM cells expressing human S1P1, S1P2, S1P3, S1P4, or S1P5 purchased from Millipore (Billerica, Mass.). To detect free intracellular calcium, S1P1, S1P2, S1P3, S1P4, or S1P5 cells are loaded with FLIPR Calcium 4 dye from Molecular Devices (Sunnyvale, Calif.). Cells are imaged for calcium mobilization using a FLIPR^TERA equipped with a 96-well dispense head.
Agonist percentage activation determinations were obtained by assaying sample compounds and referencing the Emax control for each receptor profiled. Antagonist percentage inhibition determinations were obtained by assaying sample compounds and referencing the control EC80 wells for each receptor profiled. […]
Assay was read for 180 seconds using the FLIPR^TETRA (This assay run added sample compounds and reference agonist to respective wells). […]

With CC1(C)CCC(Oc2ccc3cc(CN4CC(C5CCCC(C(=O)O)C5)C4)ccc3c2)CC1 (stereo not drawn) [Example 62, 3-(1-((6-((4,4-dimethylcyclohexyl)oxy)naphthalen-2-yl)methyl)azetidin-3-yl)cyclohexanecarboxylic acid] the IC50 was at most 500 nM.

molecular target: T1, human S1P4; test: S1P receptor calcium mobilization assay, antagonist format; assay type: cell-based; conditions: recombinant CHEM cells expressing human S1P4; calcium flux, FLIPR; stimulated with EC80 of reference agonist
Method: as §1
Agonist percentage activation determinations were obtained by assaying sample compounds and referencing the Emax control for each receptor profiled. Antagonist percentage inhibition determinations were obtained by assaying sample compounds and referencing the control EC80 wells for each receptor profiled.
Sample compounds were plated in an eight-point, four-fold dilution series in duplicate with a top concentration of 10 μM. The concentrations described here reflect the final concentration of the compounds during the antagonist assay. During the agonist assay the compound concentrations were 1.25 fold higher to allow for the final desired concentration to be achieved with further dilution by EC80 of reference agonists during the antagonist assay.
Reference agonists were handled as mentioned above serving as assay control. The reference agonists were handled as described above for Emax.
Assay was read for 180 seconds using the FLIPR^TETRA (This assay run added sample compounds and reference agonist to respective wells). At the completion of the first “Single Addition” assay run, assay plate was removed from the FLIPR^TETRA and placed at 25° C. for seven (7) minutes.
Using the EC80 values determined during the agonist assay, stimulated all pre-incubated sample compound and reference antagonist (if applicable) wells with EC80 of reference agonist. Read for 180 seconds using the FLIPR^TETRA (This assay added reference agonist to respective wells-then fluorescence measurements were collected to calculate percentage inhibition values).

CC(C)[C@H]1CC[C@H](Oc2ccc3cc(CNC45CCC(C(=O)O)(CC4)CC5)ccc3c2)CC1 [Example 4, 4-(((6-((trans-4-isopropylcyclohexyl)oxy)naphthalen-2-yl)methyl)amino)bicyclo[2.2.2]octane-1-carboxylic acid] and O=C(O)C12CCC(NCc3ccc4cc(OC5CCC6(CCCCC6)CC5)ccc4c3)(CC1)CC2 [Example 11, 4-(((6-(spiro[5.5]undecan-3-yloxy)naphthalen-2-yl)methyl)amino)bicyclo[2.2.2]octane-1-carboxylic acid] cannot be ordered by IC50: at most 250 nM for the first, at most 250 nM for the second.

CC(C)(C)[C@H]1CC[C@H](Oc2ccc3cc(CN4CCN(c5ncccn5)CC4)ccc3c2)CC1 [Example 44, 2-(4-((6-((trans-4-(tert-butyl)cyclohexyl)oxy)naphthalen-2-yl)methyl)piperazin-1-yl)pyrimidine] and CC(C)(C)[C@H]1CC[C@H](Oc2ccc3cc(CN4CCN(c5ccncc5)CC4)ccc3c2)CC1 [Example 46, 1-((6-((trans-4-(tert-butyl)cyclohexyl)oxy)naphthalen-2-yl)methyl)-4-(pyridin-4-yl)piperazine] cannot be ordered by IC50: at most 500 nM for the first, at most 500 nM for the second.

CC(C)(C)[C@H]1CC[C@H](Oc2ccc3cc(CN4CC(C5CCCC(C(=O)O)C5)C4)ccc3c2)CC1 (stereo partly drawn) [Example 58, 3-(1-((6-((trans-4-(tert-butyl)cyclohexyl)oxy)naphthalen-2-yl)methyl)azetidin-3-yl)cyclohexanecarboxylic acid] and CC(C)(C)[C@H]1CC[C@H](Oc2ccc3cc(CN4CC5CC(C4)C5C(=O)O)ccc3c2)CC1 (stereo partly drawn) [Example 74, 3-((6-((trans-4-(tert-butyl)cyclohexyl)oxy)naphthalen-2-yl)methyl)-3-azabicyclo[3.1.1]heptane-6-carboxylic acid] cannot be ordered by IC50: at most 100 nM for the first, at most 100 nM for the second.

CC(C)(C)[C@H]1CC[C@H](Oc2ccc3cc(CN4CC5(COC5)C4)ccc3c2)CC1 [Example 67, 6-((6-((trans-4-(tert-butyl)cyclohexyl)oxy)naphthalen-2-yl)methyl)-2-oxa-6-azaspiro[3.3]heptane] and CC(C)(C)[C@H]1CC[C@H](Oc2ccc3cc(CNC45CCC(C(=O)O)(CC4)C(O)C5)ccc3c2)CC1 (stereo partly drawn) [Example 80, 4-((6-(trans-4-tert-Butylcyclohexyloxy)naphthalen-2-yl)methylamino)-2-hydroxybicyclo[2.2.2]octane-1-carboxylic acid] cannot be ordered by IC50: at most 500 nM for the first, at most 250 nM for the second.
